Where two headings read alike, the source gives them in different places.

The target in one experiment is T1, His6-TEV-PPARγ-(234-505) (Homo sapiens, UniProt P37231).
T1 construct: The His6-TEV-PPARγ-(234-505) protein for assay was expressed and purified; TEV cleavage site (N); made in house
T1 sequence (P37231 234-505): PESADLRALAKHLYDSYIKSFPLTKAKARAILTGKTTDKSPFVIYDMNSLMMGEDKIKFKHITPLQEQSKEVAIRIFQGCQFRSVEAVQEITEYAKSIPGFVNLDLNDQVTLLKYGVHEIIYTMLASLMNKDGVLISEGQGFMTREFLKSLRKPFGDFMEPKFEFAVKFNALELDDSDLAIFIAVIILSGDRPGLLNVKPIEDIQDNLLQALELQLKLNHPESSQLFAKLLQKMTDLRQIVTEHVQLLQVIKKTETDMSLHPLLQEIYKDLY
In words: TR-FRET Assay to Measure Co-R Peptide Recruitment to PPARγ. Conditions: Co-R peptide (SMRT-ID2) recruitment; top final concentration 20 μM; read-out: TR-FRET i-Ag; AC50. The format is biochemical. Put shortly: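 His-tagged PPARγ (or controls) was preincubated with compound for 20 minutes at room temperature, then 5 nM anti-His terbium antibody and 200 nM FITC-labeled SMRT-ID2 corepressor peptide (final) were added for a further hour. TR-FRET signal was normalized to percent response using 500 nM T0070907 and DMSO controls.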

Another experiment has as its system UM-UC-9 engineered cells. The experiment is described as follows: Cell proliferation / short-term viability assay, CellTiter-Glo 144 h. The format is cell-based, human. Conditions: read-out: CTGlo 144 h UMUC9.5, G150. Put shortly:
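UM-UC-9 engineered assay-ready cells seeded at 500 cells/well in high-glucose DMEM/10% FBS, treated from dose-response plates, grown at 37° C, 5% CO2. CellTiter-Glo 2.0 luminescence read on day 7, with a day-0 pretreatment plate as T0 reference and DMSO wells as negative control.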

As for `COc1cc(-c2cc(C(=O)N3CC[C@H](C(=O)NCc4cccc(Cl)c4)CC34CC4)n[nH]2)c(Cl)cn1` (single isomer, unassigned) [Example 245-A], the AC50 at His6-TEV-PPARγ-(234-505) amounted to 8.3 nM. In addition, the IC50 in the experiment on UM-UC-9 engineered cells (Homo sapiens, UM-UC-9, 144 h) was 4.1 nM.
With `Cc1cc(-c2cc(C(=O)N3[C@@H]4CC[C@H]3C[C@H](C(=O)N[C@H]3CC[C@@](O)(C(F)(F)F)CC3)C4)n[nH]2)c2cn[nH]c2n1` [Example 315, (1R,3s,5S)—N-((1r,4R)-4-hydroxy-4-(trifluoromethyl)cyclohexyl)-8-(5-(6-methyl-1H-pyrazolo[3,4-b]pyridin-4-yl)-1H-pyrazole-3-carbonyl)-8-azabicyclo[3.2.1]octane-3-carboxamide], the AC50 on His6-TEV-PPARγ-(234-505) was determined as 863 nM. The IC50 with UM-UC-9 engineered cells (Homo sapiens, UM-UC-9, 144 h) was above 10000 nM.
Regarding `COc1cc(-c2cc(C(=O)N3CCC(C(=O)N[C@@H]4C[C@H]4c4ccccc4)CC3)n[nH]2)c(Cl)cn1` [Example 133, 1-(5-(5-chloro-2-methoxypyridin-4-yl)-1H-pyrazole-3-carbonyl)-N-((1R,2S)-2-phenylcyclopropyl)piperidine-4-carboxamide], on His6-TEV-PPARγ-(234-505), the AC50 came to 292 nM. Further, the IC50 with UM-UC-9 engineered cells (Homo sapiens, UM-UC-9, 144 h) worked out at 1740 nM.
Regarding `COc1cc(-c2cc(C(=O)N3CCC(C(=O)NCc4ccc5[nH]c(C)cc5c4)CC3)n[nH]2)c(Cl)cn1` [Example 203, 1-(5-(5-chloro-2-methoxypyridin-4-yl)-1H-pyrazole-3-carbonyl)-N-((2-methyl-1H-indol-5-yl)methyl)piperidine-4-carboxamide], the AC50 at His6-TEV-PPARγ-(234-505) was 77.4 nM. Further, the IC50 in the experiment on UM-UC-9 engineered cells (Homo sapiens, UM-UC-9, 144 h) was 96.4 nM.
`COc1cc(-c2cc(C(=O)N3CCC(C(=O)NCc4cn(C)c5ccccc45)CC3)n[nH]2)c(Cl)cn1` [Example 187, 1-(5-(5-chloro-2-methoxypyridin-4-yl)-1H-pyrazole-3-carbonyl)-N-((1-methyl-1H-indol-3-yl)methyl)piperidine-4-carboxamide]: the AC50 on His6-TEV-PPARγ-(234-505) is 41.7 nM. Moreover, the IC50 in the experiment on UM-UC-9 engineered cells (Homo sapiens, UM-UC-9, 144 h) was 114 nM.
Turning to `COc1cc(-c2cc(C(=O)N3CCC(C(=O)NC4CCN(C5COC56CNC6)C4)CC34CC4)n[nH]2)c(F)cn1` (mixture of isomers) [Example 461], the AC50 on His6-TEV-PPARγ-(234-505) was 440 nM. In addition, the IC50 in the experiment on UM-UC-9 engineered cells was above 10000 nM.
Turning to `COc1cc(-c2cc(C(=O)N3CC[C@H](C(=O)NCc4ncc(OC(C)C)cc4Cl)CC34CC4)n[nH]2)c(F)cn1` [Example 491, (S)—N-((3-chloro-5-isopropoxypyridin-2-yl)methyl)-4-(5-(5-fluoro-2-methoxypyridin-4-yl)-1H-pyrazole-3-carbonyl)-4-azaspiro[2.5]octane-7-carboxamide], the AC50 on His6-TEV-PPARγ-(234-505) came to 0.3 nM. The IC50 in the experiment on UM-UC-9 engineered cells (Homo sapiens, UM-UC-9, 144 h) was determined as 11 nM.
For the molecule `COc1cc(-c2cc(C(=O)N3CCC(C(=O)NC4CCN(c5ncc(C#N)cn5)C4)CC34CC4)n[nH]2)c(F)cn1` (mixture of isomers) [Example 472, (S)—N—((R)-1-(5-cyanopyrimidin-2-yl)pyrrolidin-3-yl)-4-(5-(5-fluoro-2-methoxypyridin-4-yl)-1H-pyrazole-3-carbonyl)-4-azaspiro[2.5]octane-7-carboxamide and (S)—N—((S)-1-(5-cyanopyrimidin-2-yl)pyrrolidin-3-yl)-4-(5-(5-fluoro-2-methoxypyridin-4-yl)-1H-pyrazole-3-carbonyl)-4-azaspiro[2.5]octane-7-carboxamide], the AC50 at His6-TEV-PPARγ-(234-505) was found to be 2.9 nM. The IC50 with UM-UC-9 engineered cells was 24.2 nM.
For `COc1cc(-c2cc(C(=O)N3CCC(C(=O)NCc4ccc5c(c4)CCS5(=O)=O)CC3)n[nH]2)c(Cl)cn1` [Example 237, 1-(5-(5-chloro-2-methoxypyridin-4-yl)-1H-pyrazole-3-carbonyl)-N-((1,1-dioxido-2,3-dihydrobenzo[b]thiophen-5-yl)methyl)piperidine-4-carboxamide], the AC50 on His6-TEV-PPARγ-(234-505) amounted to 722 nM. Moreover, in the experiment with UM-UC-9 engineered cells (Homo sapiens, UM-UC-9, 144 h), the IC50 was above 10000 nM.
Take `COc1cc(-c2cc(C(=O)N3CCC(C(=O)NC4CCOc5ccc(C)nc54)CC34CC4)n[nH]2)c(F)cn1` (mixture of isomers) [Example 380, (S)-4-(5-(5-fluoro-2-methoxypyridin-4-yl)-1H-pyrazole-3-carbonyl)-N—((R)-6-methyl-3,4-dihydro-2H-pyrano[3,2-b]pyridin-4-yl)-4-azaspiro[2.5]octane-7-carboxamide and (S)-4-(5-(5-fluoro-2-methoxypyridin-4-yl)-1H-pyrazole-3-carbonyl)-N—((S)-6-methyl-3,4-dihydro-2H-pyrano[3,2-b]pyridin-4-yl)-4-azaspiro[2.5]octane-7-carboxamide]: at His6-TEV-PPARγ-(234-505), the AC50 came to 30.6 nM. Further, the IC50 in the experiment with UM-UC-9 engineered cells is 43.7 nM.
Consider `CO[C@]1(C(F)(F)F)CC[C@@H](NC(=O)[C@H]2CCN(C(=O)c3cc(-c4cc(C)ncn4)[nH]n3)C3(CC3)C2)CC1` (single isomer, unassigned) [Example 309-A], for which the AC50 on His6-TEV-PPARγ-(234-505) is 2.9 nM. Further, in the experiment on UM-UC-9 engineered cells (Homo sapiens, UM-UC-9, 144 h), the IC50 is 5.4 nM.
In the case of `COc1cc(-c2cc(C(=O)N3CCC(C(=O)NC4CN(CC5(O)CC5)CC4(F)F)CC34CC4)n[nH]2)c(F)cn1` (mixture of isomers) [Example 470, (S)—N—((R)-4,4-difluoro-1-((1-hydroxycyclopropyl)methyl)pyrrolidin-3-yl)-4-(3-(5-fluoro-2-methoxypyridin-4-yl)-1-pyrazole-5-carbonyl)-4-azaspiro[2.5]octane-7-carboxamide and (S)—N—((S)-4,4-difluoro-1-((1-hydroxycyclopropyl)methyl)pyrrolidin-3-yl)-4-(3-(5-fluoro-2-methoxypyridin-4-yl)-1H-pyrazole-5-carbonyl)-4-azaspiro[2.5]octane-7-carboxamide], on His6-TEV-PPARγ-(234-505), the AC50 stood at 112 nM. Also, in the experiment on UM-UC-9 engineered cells, the IC50 is 897 nM.
Take `COc1cc(-c2cc(C(=O)N3CCC(C(=O)NC4CN(C)Cc5ccccc54)CC3)n[nH]2)c(Cl)cn1` (racemic) [Example 227, 1-(5-(5-chloro-2-methoxypyridin-4-yl)-1H-pyrazole-3-carbonyl)-N-(2-methyl-1,2,3,4-tetrahydroisoquinolin-4-yl)piperidine-4-carboxamide]: at His6-TEV-PPARγ-(234-505), the AC50 turned out to be 947 nM. For the same molecule, in the experiment with UM-UC-9 engineered cells (Homo sapiens, UM-UC-9, 144 h), the IC50 is 5960 nM.
In the case of `COc1cc(-c2cc(C(=O)N3[C@@H]4CC[C@H]3C[C@H](C(=O)NCc3ncc(F)cc3Cl)C4)n[nH]2)c(F)cn1` [Example 384, (1R,3s,5S)—N-((3-chloro-5-fluoropyridin-2-yl)methyl)-8-(5-(5-fluoro-2-methoxypyridin-4-yl)-1H-pyrazole-3-carbonyl)-8-azabicyclo[3.2.1]octane-3-carboxamide], at His6-TEV-PPARγ-(234-505), the AC50 came to 15.2 nM. Also, the IC50 in the experiment with UM-UC-9 engineered cells (Homo sapiens, UM-UC-9, 144 h) came out at 82.1 nM.
For `CC(=O)c1cc(-c2cc(C(=O)N3CCC(C(=O)NCc4ncc(F)cc4Cl)CC34CC4)n[nH]2)c(F)cn1` (centres unmarked) [Example 477, 4-(5-(2-acetyl-5-fluoropyridin-4-yl)-1H-pyrazole-3-carbonyl)-N-((3-chloro-5-fluoropyridin-2-yl)methyl)-4-azaspiro[2.5]octane-7-carboxamide], the AC50 on His6-TEV-PPARγ-(234-505) was 42.8 nM. Further, in the experiment with UM-UC-9 engineered cells (Homo sapiens, UM-UC-9, 144 h), the IC50 turned out to be 307 nM.
In the case of `COc1cc(-c2cc(C(=O)N3CCC(C(=O)NCc4ccc5c(c4)C(C)(C)CN5)CC3)n[nH]2)c(F)cn1` [Example 278, N-((3,3-dimethylindolin-5-yl)methyl)-1-(5-(5-fluoro-2-methoxypyridin-4-yl)-1H-pyrazole-3-carbonyl)piperidine-4-carboxamide], on His6-TEV-PPARγ-(234-505), the AC50 came out at 75.1 nM. The IC50 with UM-UC-9 engineered cells (Homo sapiens, UM-UC-9, 144 h) was 478 nM.
With `COc1cc(-c2cc(C(=O)N3CC[C@H](C(=O)NC4CCC5(CC4)N([S+]([O-])C(C)(C)C)CC5(F)F)CC34CC4)n[nH]2)c(F)cn1` (stereo partly drawn) [Example 409, (7S)—N-(1-(tert-butylsulfinyl)-3,3-difluoro-1-azaspiro[3.5]nonan-7-yl)-4-(5-(5-fluoro-2-methoxypyridin-4-yl)-1H-pyrazole-3-carbonyl)-4-azaspiro[2.5]octane-7-carboxamide], at His6-TEV-PPARγ-(234-505), the AC50 amounted to 30.9 nM. Besides, the IC50 in the experiment on UM-UC-9 engineered cells (Homo sapiens, UM-UC-9, 144 h) was determined as 39.1 nM.
For `COc1cc(-c2cc(C(=O)N3CCC(C(=O)NCc4ncc(C(F)(F)F)cn4)CC3)n[nH]2)c(Cl)cn1` [Example 211, 1-(5-(5-chloro-2-methoxypyridin-4-yl)-1H-pyrazole-3-carbonyl)-N-((5-(trifluoromethyl)pyrimidin-2-yl)methyl)piperidine-4-carboxamide], the AC50 on His6-TEV-PPARγ-(234-505) amounted to 462 nM. For the same molecule, the IC50 with UM-UC-9 engineered cells (Homo sapiens, UM-UC-9, 144 h) was found to be 3260 nM.
For the molecule `COc1cc(-c2cc(C(=O)N3CCC(C(=O)NCc4ccc5c(c4)ncn5C)CC3)n[nH]2)c(Cl)cn1` [Example 223, 1-(5-(5-chloro-2-methoxypyridin-4-yl)-1H-pyrazole-3-carbonyl)-N-((1-methyl-1H-benzo[d]imidazol-5-yl)methyl)piperidine-4-carboxamide], the AC50 on His6-TEV-PPARγ-(234-505) was found to be 628 nM. Also, in the experiment on UM-UC-9 engineered cells (Homo sapiens, UM-UC-9, 144 h), the IC50 is above 10000 nM.

For the origin of these results see patent US12606541B2, “PPARg modulators and methods of use” (Eisai R&D Management Co., Ltd., priority 2020, dated 2026).
